Key:
[1] = target: T1, Alpha amylase (Homo sapiens, UniProt P0DUB6); experiment: Inhibition of human saliva alpha-amylase using starch as substrate preincubated for 15 mins followed by substrate addition and measured after 15 mins
T1 sequence (P0DUB6 whole entry): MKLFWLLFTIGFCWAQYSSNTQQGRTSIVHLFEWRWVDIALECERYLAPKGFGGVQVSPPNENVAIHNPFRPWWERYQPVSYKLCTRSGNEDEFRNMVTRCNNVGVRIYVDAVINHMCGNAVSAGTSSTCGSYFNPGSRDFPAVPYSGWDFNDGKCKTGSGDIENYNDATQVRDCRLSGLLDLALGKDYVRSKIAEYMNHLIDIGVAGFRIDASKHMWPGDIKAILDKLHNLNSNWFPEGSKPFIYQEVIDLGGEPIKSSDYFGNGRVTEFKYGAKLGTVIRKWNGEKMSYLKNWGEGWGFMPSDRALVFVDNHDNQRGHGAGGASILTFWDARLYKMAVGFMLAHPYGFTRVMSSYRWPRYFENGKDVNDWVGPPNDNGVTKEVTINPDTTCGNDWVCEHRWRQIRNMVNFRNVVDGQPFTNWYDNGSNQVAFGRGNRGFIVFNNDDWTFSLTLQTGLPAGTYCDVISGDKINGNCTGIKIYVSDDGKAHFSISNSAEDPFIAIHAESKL

[2] = Cytotoxicity against HEK293 cells assessed as reduction in cell growth incubated for 12 hrs by CCK-8 assay; format: toxicity, cell-based; details: human
[3] = target: T1, Alpha amylase; experiment: Competitive inhibition of human saliva alpha-amylase assessed as inhibition constant using starch as substrate preincubated for 15 mins followed by substrate addition and measured after 15 mins by dixon plot analysis; format: tissue-based
[4] = tested on: O=C(N/N=C/c1coc2cc(Br)ccc2c1=O)c1nc(-c2cccc(Br)c2)cs1; experiment: Competitive inhibition of human saliva alpha-amylase assessed as Km using starch as substrate preincubated for 15 mins followed by substrate addition and measured after 15 mins by Lineweaver-Burk plot analysis; details: time 30.0 min

IC50 [1] [µM]	Ki [3] [µM]	Compound	CC50 at 12 h [2] [µM]	Km [4] [µM]
6.1	–	O=C(N/N=C/c1coc2cc(Br)ccc2c1=O)c1nc(-c2ccc(Cl)cc2)cs1	68	–
4.46	5.4	O=C(N/N=C/c1coc2cc(Br)ccc2c1=O)c1nc(-c2cccc(Br)c2)cs1	> 100	–
19	–	Cc1ccc2occ(/C=N/NC(=O)c3nc(-c4ccc(F)cc4)cs3)c(=O)c2c1	–	–
–	–	Alpha amylase (Homo sapiens) (from UniProt P0DUB6)	–	2140
